Reference: patent publication US20160090351A1, “INHIBITORS OF DEUBIQUITINATING PROTEASES” (BRANDEIS UNIVERSITY, priority 2013, published 2016)

Assays:
[1] = system: DUBs; assay: decomposition of high molecular weight ubiquitinated proteins (HMW-Ub) in lysates of HEK 293T cells expressing HA-Ub; format: biochemical, human; settings: for DUB inhibitory activity, SAR in words: relative to C4 or parent analog
Protocol: FIG. 30 depicts data showing that diphenylcarbonates inhibit the decomposition of high molecular weight ubiquitinated proteins (HMW-Ub). Lysates were prepared from HEK 293T cells expressing HA-ubiquitin. Samples were incubated at 37° C. and reactions were quenched by the addition of reducing Laemmli buffer. HMW-Ub was assessed by SDS-PAGE and immunoblotting with anti-HA antibody. A. Representative immunoblots measuring the decomposition of HMW-Ub in lysates treated with either the DMSO vehicle, G5 (10 μM) or C4 (500 μM). B. Plot of the decomposition of HMW-Ub in lysates treated with DMSO and C4 (500 μM) (N=2; error bars denote range). C. Inhibition of HMW-Ub decomposition by diphenylcarbonates. Lysates were treated with diphenylcarbonates (50 μM). “-” denotes no treatment; D, 1% DMSO vehicle; IU1, an USP14-specific inhibitor; Bort, bortezomib, a proteasome inhibitor. D. Representative decomposition of HMW-Ub after 2 h incubation in the presence of varying concentrations of C4. See also FIG. 36. E. Quantitation of D. The values of EC50 reported in FIG. 29B are the average and S.E.M. of at least 3 independent experiments. See also FIG. 37 and FIG. 38.
Cells overexpressing HA-ubiquitin were prepared as above. Pellets were typically stored at −80° C. until required, at which time they were thawed on ice. Cell lysis was performed in lysis buffer using a Dounce homogenizer (10 strokes, with grinding, on ice: typical yield approx. 2-5 mg protein per transfected T75 flask for HEK 293T cells; 1-3 mg protein from a T75 flask for Cos-1). Crude lysate was centrifuged at 17000 g for 10 min at 4° C., after which time the concentration of the lysate was normalized to 1 mg/mL. The lysate was aliquoted into PCR strip tubes (typical volumes 75-50 μL) and compound in DMSO was added to this to give a final concentration of DMSO of 1%. Tubes were briefly centrifuged, overlaid with Chill-out wax (50 μL) and placed in a PCR machine at 37° C. with heated lid set to 37° C. Aliquots (9 μL) were removed at the stated times and immediately quenched in (2× final concentration) reducing (dithiothreitol) loading buffer and frozen (−19° C.) till required. Western blot analysis was carried out using standard methods. Samples were resolved by SDS-PAGE, transferred to PVDF [(0.45 μm) (Towbin buffer, tank apparatus, 90 V 1 hour, then overnight at 30 V, 4° C.)] then blocked in 15% milk in TBS-T HS (100 mM Tris HCl, pH 7.6, 500 mM NaCl, 0.5% […]) for at least 2 hours at RT. Afterward, membrane was washed in TBS-T HS then probed with anti HA-HRP (1:18000) for 1.33 hours at RT. Membrane was washed 3 times in TBS-T HS (15 mins) then once in TBS (15 mins) and exposed to ECL II and visualized using blue biofilm. […] When required, membranes were stripped in 100 mM glycine pH 4, 500 mM NaCl, 1% SDS, 5 mM BME, at 55° C. for 19 mins, then analyzed.
Lysates were prepared from HEK 293T cells expressing N-terminally HA-tagged ubiquitin (HA-Ub) to facilitate the observation of ubiquitinated proteins. In the absence of a DUB inhibitor, the HMW-Ub pool decomposed with a half-life of 34 min (FIG. 30A,B). […] Similar results were obtained in lysates prepared from Cos-1 cells expressing HA-Ub.

[2] = system: K562 cells; assay: accumulation of K48- and K63-linked Ub in K562 cells; format: cell-based, human; settings: for accumulation of K48-linked HMW-Ub: 50 μM, 2 h
Protocol: FIG. 34 depicts data showing that diphenylcarbonates cause the accumulation of HMW-Ub and reduce the levels of Bcr-Abl in K562 cells. A. K562 cells were treated with diphenyl carbonates (50 μM) for 2 h and then assayed for the accumulation of K48-linked Ub. B. As in A, but Bcr-Abl was measured by immunoblotting with anti-Abl antibodies. C. K562 cells were treated with C17 (50 μM) in the presence and absence of bortezomib (6 μM) for 4 hours and Bcr-Abl was measured by immunblotting with anti-Abl antibodies. D. Quantitation of blot in C. Significance: DMSO relative to C17 and bortezomib p=0.002; DMSO relative to C17, p=0.03. E. K562 cells were treated with C15 for 4 hours then analyzed for SMAD4 monoubiquitination by western blot. F. Quantitation of blots in A. (N=3). See also FIG. 40.
(§1) FIG. 40 depicts data showing that diphenyl carbonates induce the degradation of Bcr-Abl kinase. A. K562 cells were treated with C17 for 24 h (1 dose) then analyzed for Bcr-Abl expression by western blot with anti-Abl antibody. B. Quantitation of blots in A normalized to actin. C. K562 cells were treated with C17 for 24 h then the amount of cells in G1 and apoptosis were recorded (N=3). D. K562 were treated with C15 for 4 h then analyzed for Bcr-Abl expression using western blot. E. Quantitation of Bcr-Abl from D normalized to tubulin (N=4). F. Same K562 lysates were separately analyzed for K63-linked ubiquitin. G. Quantitation of blots in F (N=4). Differences between all bars is significant p<0.01). H. K562 cells were treated with C15 for 24 h after which time cells were fixed in ethanol, treated with propodium iodide/RNAse then analyzed by FACS. Viability was calculated using forward and side scatter. I. Same experiment as H but red fluorescence was measured to determine DNA content
Transfected cells were harvested 1.5 days post transfection. […] Typically clarified lysate was analyzed.

[3] = system: K562 cells; assay: apoptosis, cell cycle and viability of K562 cells by flow cytometry; format: cell-based, human; settings: K562 cells
Protocol: K562 cells are from a myelogenous leukemia line that expresses Bcr-Abl kinase. A. K562 cells were treated with TU50 for 24 hours after which time the cells were treated with annexin V-FITC and propidium iodide. Cells were then analyzed by flow cytometry. Cells showing only annexin V-FITC were considered apoptotic whereas cells showing both annexin V-FITC and propidium iodide were considered necrotic. N=2. All points show a significant difference to the vehicle (DMSO) with p<0.05. […] All points show a significant difference to vehicle (DMSO) with p<0.02. C. Same as A, but the incubation period was 8 hours. N>2. All points show a significant difference to DMSO with p<0.02. D, K562 cells were treated with TU50 for 4 hours. Samples were analyzed by SDS-PAGE and immunoblotting with anti-Bcr-Abl antibody. E. Quantitation of blot in D. The signal for tubulin was used to normalize the Bcr-Abl signal. N=3.
as §1

| SMILES | DUB inhibitory activity, SAR in words [1] | accumulation of K48-linked HMW-Ub [2] | increase of inhibitory potency relative to C4 (factor) [1] | further results |
| --- | --- | --- | --- | --- |
| NCc1ccc(OC(=O)Oc2cccc3ccccc23)cc1 [Compound C18] | improved potency relative to C4 | caused the accumulation of K48-linked HMW-Ub in K562 cells |  |  |
| NCc1ccc(OC(=O)Oc2ccc3ccccc3c2)cc1 [Compound C17] | improved potency relative to C4 | caused the accumulation of K48-linked HMW-Ub in K562 cells |  | G1 and apoptotic cells ([3]; 24 h incubation): dose-dependent increase in G1 and apoptotic cells |
| NCc1ccc(OC(=O)Oc2ccc(Br)cc2)cc1 [Compound C15, 4-(aminomethyl)phenyl(4-bromophenyl)carbonate] |  | caused the accumulation of K48-linked HMW-Ub in K562 cells | approximately 10 | viability, G1 and apoptotic cells ([3]; 24 h, at 50 μM): decrease in viability, and increase in G1 and apoptotic cells; accumulation of K63-linked ubiquitin ([2]; C15 4 h): caused the accumulation of K63-linked ubiquitin |
| O=C1/C(=C/c2ccc([N+](=O)[O-])cc2)CS(=O)(=O)C/C1=C\c1ccc([N+](=O)[O-])cc1 [Compound G5, reference compound] |  |  |  | stabilization of the HMW-Ub pool ([1]; HEK 293T HA-Ub lysates, 37° C.): stabilized the HMW-Ub pool |
| NCc1ccc(OC(=O)Oc2ccc(Cl)cc2)cc1 [Compound C14, 4-(aminomethyl)phenyl(4-chlorophenol)carbonate] |  | caused the accumulation of K48-linked HMW-Ub in K562 cells | approximately 10 |  |
